# Data reported in patent publication US11130740B2, “Substituted 2,3-dihydro-1H-indene analogs and methods using same” (Arbutus Biopharma Corporation, priority 2017, dated 2021).
# Biological target: PD-L1 His protein / PD-1 Fc protein (Homo sapiens (Human), UniProt Q9NZQ7)
# Assay: HTRF assay (PD-1/PD-L1 interaction)
# Format: binding
# Details: PD-L1 His 6 nM, PD-1 Fc 6 nM; inhibitors diluted 3-fold from 20 μM
# Procedure: PD-L1 His protein was prepared and added at the final concentration of 6 nM in the White opaque 384 well plate (Corning cat #3824BC). PD-L1 small molecule inhibitors were diluted by 3-fold starting from 20 μM and a final concentration of 0.001 μM and added to the well. PD-1 Fc protein was added at the final concentration of 6 nM. PD-L1 His protein, PD-L1 small molecule inhibitors, and PD1 Fc proteins were added to the well in this order, with each 5 μl volume, and were incubated for 15 minutes at room temperature. PAb anti-Human IgG-XL665 (Cisbio, cat #61HFCXLA) and Mab anti-6HIS Tb cryptate Gold (Cisbio, cat #61HI2TLA) were mixed at 6.7 nM and 0.35 nM respectively, and total 5 μl volume of mixture was added to the well and incubated at room temperature for 1 hour. The plate was read using PerkinElmer Envision plate reader and data was analyzed by Prism 6 software.
# Sequence of PD-L1 His protein / PD-1 Fc protein (Q9NZQ7 19-238): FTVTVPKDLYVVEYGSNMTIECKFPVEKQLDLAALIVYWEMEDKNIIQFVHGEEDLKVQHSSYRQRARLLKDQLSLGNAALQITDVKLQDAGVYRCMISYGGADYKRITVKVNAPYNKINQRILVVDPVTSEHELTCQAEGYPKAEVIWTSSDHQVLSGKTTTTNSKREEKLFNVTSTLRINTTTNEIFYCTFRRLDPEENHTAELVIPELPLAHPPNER
row,Structure (SMILES),IC50 [nM]
1,"CC(=O)NCCNC1CCc2cc(OCc3cccc(-c4ccc5c(c4)OCCO5)c3C)ccc21 (stereo not drawn) [Compound 16D, N-(2-((5-((3-(2,3-dihydrobenzo[b][1,4]dioxin-6-yl)-2-methylbenzyl)oxy)-2,3-dihydro-1H-inden-1-yl)amino)ethyl)acetamide]",323
2,"Cc1c(COc2ccc3c(c2)C[C@H](O)C3NCCN2CCN(C)CC2)cccc1-c1ccccc1 (stereo partly drawn) [Compound 10D, (2S)-5-((2-methyl-[1,1′-biphenyl]-3-yl)methoxy)-1-((2-(4-methylpiperazin-1-yl)ethyl)amino)-2,3-dihydro-1H-inden-2-ol]",5150
3,"Cc1c(COc2ccc3c(c2)C[C@H](O)[C@H]3NCCN2CCOCC2)cccc1-c1ccccc1 [Compound 10E_2, (1S,2S)-5-((2-methyl-[1,1′-biphenyl]-3-yl)methoxy)-1-((2-morpholinoethyl)amino)-2,3-dihydro-1H-inden-2-ol]",1080
4,"Cc1c(COc2ccc3c(c2)C[C@H](O)[C@H]3NCCO)cccc1-c1ccccc1 [Compound 10F_2, (1S,2S)-1-((2-hydroxyethyl)amino)-5-((2-methyl-[1,1′-biphenyl]-3-yl)methoxy)-2,3-dihydro-1H-inden-2-ol]",1170
5,"CC(=O)NCCN[C@H]1c2ccc(OCc3cccc(-c4ccccc4)c3C)cc2C[C@@H]1O [Compound 10A_2_2, N-(2-(((1S,2S)-2-hydroxy-5-((2-methyl-[1,1′-biphenyl]-3-yl)methoxy)-2,3-dihydro-1H-inden-1-yl)amino)ethyl)acetamide]",170
6,"CC(=O)NCCNC1CCc2cc(OCc3cccc(-c4ccccc4)c3C)ccc21 (stereo not drawn) [Compound 16C, N-(2-((5-((2-methyl-[1,1′-biphenyl]-3-yl)methoxy)-2,3-dihydro-1H-inden-1-yl)amino)ethyl)acetamide]",379
7,"Cc1c(COc2ccc3c(c2)C[C@H](O)[C@@H]3NCCO)cccc1-c1ccccc1 [Compound 10F_1, (1R,2S)-1-((2-hydroxyethyl)amino)-5-((2-methyl-[1,1′-biphenyl]-3-yl)methoxy)-2,3-dihydro-1H-inden-2-ol]",1320
8,"CC(=O)NCCN[C@@H]1c2ccc(OCc3cccc(-c4ccccc4)c3C)cc2C[C@@H]1O [Compound 10A_l_2, N-(2-(((1R,2S)-2-hydroxy-5-((2-methyl-[1,1′-biphenyl]-3-yl)methoxy)-2,3-dihydro-1H-inden-1-yl)amino)ethyl)acetamide]",5090
9,"CC(=O)NCCN[C@@H]1c2ccc(OCc3cccc(-c4ccccc4)c3C)cc2C[C@H]1O [Compound 10A_2_1, N-(2-(((1R,2R)-2-hydroxy-5-((2-methyl-[1,1′-biphenyl]-3-yl)methoxy)-2,3-dihydro-1H-inden-1-yl)amino)ethyl)acetamide]",5000
10,"CC(=O)NCCNC1COc2cc(OCc3cccc(-c4ccc5c(c4)OCCO5)c3C)ccc21 (stereo not drawn) [Compound 16B, N-(2-((6-((3-(2,3-dihydrobenzo[b][1,4]dioxin-6-yl)-2-methylbenzyl)oxy)-2,3-dihydrobenzofuran-3-yl)amino)ethyl)acetamide]",3800
11,"CC(=O)NCCN[C@@H]1c2ccc(OCc3cccc(-c4ccccc4)c3C)cc2C[C@@H]1O [Compound 10A_l, N-(2-(((1R,2S)-2-hydroxy-5-((2-methyl-[1,1′-biphenyl]-3-yl)methoxy)-2,3-dihydro-1H-inden-1-yl)amino)ethyl)acetamide]",1080
12,"Cc1c(COc2ccc3c(c2)C[C@H](O)[C@H]3NCCS(C)(=O)=O)cccc1-c1ccccc1 [Compound 10C_2, (1S,2S)-5-((2-methyl-[1,1′-biphenyl]-3-yl)methoxy)-1-((2-(methylsulfonyl)ethyl)amino)-2,3-dihydro-1H-inden-2-ol]",> 20000
13,"CC(=O)NCCNC1COc2cc(OCc3cccc(-c4ccccc4)c3C)ccc21 (stereo not drawn) [Compound 16A, N-(2-((6-((2-methyl-[1,1′-biphenyl]-3-yl)methoxy)-2,3-dihydrobenzofuran-3-yl)amino)ethyl)acetamide]",3600
14,"CC(=O)NCCN[C@H]1c2ccc(OCc3cccc(-c4ccccc4)c3C)cc2C[C@@H]1O [Compound 10A_2, N-(2-(((1S,2S)-2-hydroxy-5-((2-methyl-[1,1′-biphenyl]-3-yl)methoxy)-2,3-dihydro-1H-inden-1-yl)amino)ethyl)acetamide]",204
15,"CC(=O)NCCN[C@@H]1c2ccc(OCc3cccc(-c4ccc5c(c4)OCCO5)c3C)cc2C[C@@H]1O [Compound 10B_1, N-(2-(((1R,2S)-5-((3-(2,3-dihydrobenzo[b][1,4]dioxin-6-yl)-2-methylbenzyl)oxy)-2-hydroxy-2,3-dihydro-1H-inden-1-yl)amino)ethyl)acetamide]",3140
16,"CC(=O)NCCN[C@H]1c2ccc(OCc3cccc(-c4ccccc4)c3C)cc2C[C@H]1O [Compound 10A_l_1, N-(2-(((1S,2R)-2-hydroxy-5-((2-methyl-[1,1′-biphenyl]-3-yl)methoxy)-2,3-dihydro-1H-inden-1-yl)amino)ethyl)acetamide]",863
17,"Cc1c(COc2ccc3c(c2)C[C@H](O)[C@@H]3NCCN2CCOCC2)cccc1-c1ccccc1 [Compound 10E_1, (1R,2S)-5-((2-methyl-[1,1′-biphenyl]-3-yl)methoxy)-1-((2-morpholinoethyl)amino)-2,3-dihydro-1H-inden-2-ol]",7780
18,"Cc1c(COc2ccc3c(c2)C[C@H](O)[C@@H]3NCCS(C)(=O)=O)cccc1-c1ccccc1 [Compound 10C_l, (1R,2S)-5-((2-methyl-[1,1′-biphenyl]-3-yl)methoxy)-1-((2-(methylsulfonyl)ethyl)amino)-2,3-dihydro-1H-inden-2-ol]",> 20000
